Laboratory results: patent US9023821B2, “Use of MicroRNA for treating diseases associated with a dysfunction of the cilia in multiciliated epithelial cells” (Centre National de la Recherche Scientifique, priority 2009, dated 2015)

Tests used:
[1] = system: basal cells and pyramidal cells of the airway epithelium; assay: miRNA expression in sorted basal cells versus pyramidal cells (ciliated + secretory), HTS and Agilent chips; parameters: species or system human; conditions: for Modulation of expression of the miRNAs in pyramidal cells (323(−)) relative to basal cells 323(+): HTS and Agilent chips; for Intensity of the level of expression in log2 in pyramidal cells (323(−)): pyramidal cells (ciliated + secretory)
Method in brief: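 Read-out is miRNA profiling of total RNA, by Agilent chips or by high-throughput sequencing, in two sorted populations. These were basal cells (CD151+/TF+) and pyramidal ciliated/secretory cells (CD151−/TF−) from airway epithelium of 3 donors.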

[2] = system: human airway epithelial cells (HAECs); assay: Agilent miRNA chips, miRNA expression at four stages of differentiation of HAECs; conditions: for Modulation (ratio of the level of intensity of expression in log2 in two stages of differentiation) measured with the Agilent chips, D7 − D0 / Modulation (ratio of the level of intensity of expression in log2 in two stages of differentiation) measured with the Agilent chips, FC − D7 / Modulation (ratio of the level of intensity of expression in log2 in two stages of differentiation) measured with the Agilent chips, WD − D0 / Modulation (ratio of the level of intensity of expression in log2 in two stages of differentiation) measured with the Agilent chips, WD − FC / Level of intensity of expression in log2 measured with the Agilent chips, D0 / Level of intensity of expression in log2 measured with the Agilent chips, D7 / Level of intensity of expression in log2 measured with the Agilent chips, FC / Level of intensity of expression in log2 measured with the Agilent chips, WD: Table VI; for Modulation (ratio of the level of intensity of expression in log2 at two stages of differentiation), FC − D7 / Modulation (ratio of the level of intensity of expression in log2 at two stages of differentiation), WD − FC: Agilent miRNA chips, Table V; for Level of intensity of expression in log2 measured with the Agilent chips, D0: stage D0; for Level of intensity of expression in log2 measured with the Agilent chips, D7: stage D7; for Level of intensity of expression in log2 measured with the Agilent chips, FC: stage FC; for Level of intensity of expression in log2 measured with the Agilent chips, WD: stage WD
Method in brief: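 To benchmark sequencing, the microRNAome was also profiled by hybridizing labelled RNA from identical patient samples to v2 arrays with miRBase v.12.0 human content (866 miRNAs) and 89 viral miRNAs.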

[3] = system: human airway epithelial cells (HAECs); assay: High-throughput sequencing (HTS) of miRNAs at four stages of differentiation of HAECs; conditions: for Modulation (ratio of the level of intensity of expression in log2 in two stages of differentiation) measured by high-throughput sequencing, D7 − D0 / Modulation (ratio of the level of intensity of expression in log2 in two stages of differentiation) measured by high-throughput sequencing, FC − D7 / Modulation (ratio of the level of intensity of expression in log2 in two stages of differentiation) measured by high-throughput sequencing, WD − D0 / Modulation (ratio of the level of intensity of expression in log2 in two stages of differentiation) measured by high-throughput sequencing, WD − FC / Level of intensity of expression in log2 measured by high-throughput sequencing, D0 / Level of intensity of expression in log2 measured by high-throughput sequencing, D7 / Level of intensity of expression in log2 measured by high-throughput sequencing, FC / Level of intensity of expression in log2 measured by high-throughput sequencing, WD: Table VI; for Level of intensity of expression in log2 At the differentiated stage (WD) measured in HTS: healthy human airway epithelial tissue; for Level of intensity of expression in log2 measured by high-throughput sequencing, D0: stage D0; for Level of intensity of expression in log2 measured by high-throughput sequencing, D7: stage D7; for Level of intensity of expression in log2 measured by high-throughput sequencing, FC: stage FC; for Level of intensity of expression in log2 At the differentiated stage (WD) measured in HTS / Level of intensity of expression in log2 measured by high-throughput sequencing, WD: stage WD; for Modulation (ratio of the level of intensity of expression in log2 in two stages of differentiation), D7 − D0 / Modulation (ratio of the level of intensity of expression in log2 in two stages of differentiation), FC − D7 / Modulation (ratio of the level of intensity of expression in log2 in two stages of differentiation), WD − FC / Abundance (%), D0 / Abundance (%), D7 / Abundance (%), FC / Abundance (%), WD: HTS; for Abundance (%), D0: ALI-D0; for Abundance (%), D7: ALI-D7; for Abundance (%), FC: ALI-FC; for Abundance (%), WD: ALI-WD
Method in brief: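 Cells at four air-liquid interface differentiation stages were lysed and total RNA with miRNAs purified. Adaptor Mix A or B ligation (16° C, 2-16 h) allowed 5′ or 3′ end sequencing. Abundance cut-off was 1% of total miRNAs in at least one stage.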

Row | Substance | Modulation of expression of the miRNAs in pyramidal cells (323(−)) relative to basal cells 323(+) [1] | Intensity of the level of expression in log2 in basal cells (323(+)) [1] | Intensity of the level of expression in log2 in pyramidal cells (323(−)) [1] | Modulation (ratio of the level of intensity of expression in log2 in two stages of differentiation) measured with the Agilent chips, D7 − D0 [2] | Modulation (ratio of the level of intensity of expression in log2 in two stages of differentiation) measured with the Agilent chips, FC − D7 [2] | Modulation (ratio of the level of intensity of expression in log2 in two stages of differentiation) measured with the Agilent chips, WD − D0 [2] | Modulation (ratio of the level of intensity of expression in log2 in two stages of differentiation) measured with the Agilent chips, WD − FC [2] | Level of intensity of expression in log2 measured with the Agilent chips, D0 [2] | Level of intensity of expression in log2 measured with the Agilent chips, D7 [2] | Level of intensity of expression in log2 measured with the Agilent chips, FC [2] | Level of intensity of expression in log2 measured with the Agilent chips, WD [2] | Modulation (ratio of the level of intensity of expression in log2 in two stages of differentiation) measured by high-throughput sequencing, D7 − D0 [3] | Modulation (ratio of the level of intensity of expression in log2 in two stages of differentiation) measured by high-throughput sequencing, FC − D7 [3] | Modulation (ratio of the level of intensity of expression in log2 in two stages of differentiation) measured by high-throughput sequencing, WD − D0 [3] | Modulation (ratio of the level of intensity of expression in log2 in two stages of differentiation) measured by high-throughput sequencing, WD − FC [3] | Level of intensity of expression in log2 At the differentiated stage (WD) measured in HTS [3] | Level of intensity of expression in log2 measured by high-throughput sequencing, D0 [3] | Level of intensity of expression in log2 measured by high-throughput sequencing, D7 [3] | Level of intensity of expression in log2 measured by high-throughput sequencing, FC [3] | Level of intensity of expression in log2 measured by high-throughput sequencing, WD [3] | further results
1 | hsa-miR-429: human miRNA, SEQ ID No. 45 (UAAUACUGUCUGGUAAAACCGU; expressed or natural sequence; listed as Homo sapiens) | −0.31 | 6.92 log2 | 6.61 log2 | 1.71 log2 | 0.14 log2 | 1.95 log2 | 0.10 log2 | 7.97 log2 | 9.68 log2 | 9.82 log2 | 9.93 log2 | 0.42 log2 | 0.14 log2 | 1.30 log2 | 0.74 log2 | 15.11 log2 | 8.23 log2 | 8.65 log2 | 8.79 log2 | 9.53 log2 | Modulation (ratio of the level of intensity of expression in log2 at two stages of differentiation), FC − D7 [2]: 0.14 log2; Modulation (ratio of the level of intensity of expression in log2 at two stages of differentiation), WD − FC [2]: 0.10 log2
2 | hsa-miR-449a: human miRNA, SEQ ID No. 46 (UGGCAGUGUAUUGUUAGCUGGU; expressed or natural sequence; listed as Homo sapiens) | 6.07 | 2.81 log2 | 8.88 log2 | 6.53 log2 | 5.70 log2 | 12.08 log2 | −0.15 log2 | 1.47 log2 | 8.00 log2 | 13.70 log2 | 13.54 log2 | 5.21 log2 | 5.21 log2 | 10.63 log2 | 0.21 log2 | 12.24 log2 | 4.48 log2 | 9.69 log2 | 14.90 log2 | 15.11 log2 | Modulation (ratio of the level of intensity of expression in log2 at two stages of differentiation), FC − D7 [2]: 5.70 log2; Modulation (ratio of the level of intensity of expression in log2 at two stages of differentiation), WD − FC [2]: −0.15 log2; Modulation (ratio of the level of intensity of expression in log2 in two stages of differentiation), D7 − D0 [3]: 5.21 log2; Modulation (ratio of the level of intensity of expression in log2 in two stages of differentiation), FC − D7 [3]: 5.21 log2; Modulation (ratio of the level of intensity of expression in log2 in two stages of differentiation), WD − FC [3]: 0.21 log2; Abundance (%), D0 [3]: 0.00%; Abundance (%), D7 [3]: 0.18%; Abundance (%), FC [3]: 6.49%; Abundance (%), WD [3]: 5.70%
3 | hsa-miR-574-3p: human miRNA, SEQ ID No. 48 (CACGCUCAUGCACACACCCACA; expressed or natural sequence; listed as Homo sapiens) | 0.91 | 3.53 log2 | 4.44 log2 | 1.69 log2 | −0.46 log2 | 1.04 log2 | −0.18 log2 | 4.73 log2 | 6.42 log2 | 5.96 log2 | 5.77 log2 | 0.48 log2 | 0.12 log2 | 0.92 log2 | 0.32 log2 | 13.42 log2 | 13.64 log2 | 14.12 log2 | 14.24 log2 | 14.56 log2 | Modulation (ratio of the level of intensity of expression in log2 in two stages of differentiation), D7 − D0 [3]: 0.48 log2; Modulation (ratio of the level of intensity of expression in log2 in two stages of differentiation), FC − D7 [3]: 0.12 log2; Modulation (ratio of the level of intensity of expression in log2 in two stages of differentiation), WD − FC [3]: 0.32 log2; Abundance (%), D0 [3]: 2.80%; Abundance (%), D7 [3]: 3.92%; Abundance (%), FC [3]: 4.12%; Abundance (%), WD [3]: 3.90%
